Source: US20110269758A1, “NAPHTHYRIDINONES AS PROTEIN KINASE INHIBITORS” (MERCK PATENT GMBH, priority 2008, published 2011)
pIC50: −log10 of the molar value.

Legend:
Aurora Kinase A = molecular target: T1, Aurora Kinase A (Homo sapiens, UniProt O14965); assay: Biochemical enzyme assay for Aurora A activity (Caliper LC3000 / Desktop Profiler mobility shift); conditions: GST-Aurora A, 15 μM ATP, 90 min at 25° C.; LC3000 or Desktop Profiler; read-out: Aurora Kinase A IC50
T1 construct: full length Aurora A (1-403 amino acids); purchased Carna Biosciences 05-101
T1 sequence (O14965 1-403): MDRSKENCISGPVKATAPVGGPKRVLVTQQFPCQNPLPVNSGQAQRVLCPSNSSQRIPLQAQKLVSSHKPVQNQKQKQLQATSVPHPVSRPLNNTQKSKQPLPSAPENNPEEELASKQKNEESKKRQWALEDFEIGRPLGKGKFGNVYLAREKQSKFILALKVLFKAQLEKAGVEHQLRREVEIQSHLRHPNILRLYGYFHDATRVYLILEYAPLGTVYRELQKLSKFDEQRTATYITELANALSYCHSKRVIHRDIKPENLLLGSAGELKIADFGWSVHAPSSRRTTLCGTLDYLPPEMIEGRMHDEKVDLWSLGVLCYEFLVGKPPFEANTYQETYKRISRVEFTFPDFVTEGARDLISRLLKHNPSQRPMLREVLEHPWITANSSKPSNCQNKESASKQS
Method: (§1) The Aurora assays described here were performed on two Caliper Life Sciences systems, the LC3000 and the Desktop Profiler. These provide data on enzyme activity via measurement of the relative amounts of phosphorylated or unphosphorylated fluorescently labelled substrate peptide at the end of an enzymatic reaction. These different states of peptide are resolved by applying a potential difference across the sample. The presence of a charged phosphate group on the product (as opposed to the substrate) causes a different peptide mobility between the two peptides. This is visualized by excitation of a fluorescent label on the substrate and product peptides and represented as peaks within the analysis software.
In order to measure inhibitor activity of Aurora A inhibitors in the Caliper Life Sciences LC3000, a TTP Mosquito liquid handling instrument was used to place 0.25 μl of an appropriate concentration of inhibitor in 100% DMSO (for a dose response curve calculation) into each well of a 384-well plate.
The reaction was incubated for 90 min at 25° C., and then stopped by the addition of 70 μl of Stop buffer (100 mM HEPES pH 7.5, 0.015% Brij-35, 10 mM EDTA (Sigma, E7889)).
The plate was read on a Caliper LC 3000 in an Off-Chip mobility shift assay format, using the following parameters for a 12-sipper chip: screening pressure −1.8 psi, upstream voltage −2700, downstream voltage −1000. These conditions cause unphosphorylated substrate and phosphorylated product peptide to resolve as separate peaks allowing direct measurement of percentage of conversion of substrate to product.
(§2) The Desktop Profiler utilizes the same prinicipal as the LC 3000 for calculating percentage conversion of a substrate to product. Caliper Life Sciences provided proprietary flash frozen pre-made 384 well plates containing selected kinases. Each column in the 384 well plate contained a particular selected kinase. A second plate, the ‘substrate plate’ contained a mix of fluorescently labeled peptide substrate and ATP. These were arranged in columns so that transfer for substrate plate to enzyme plate provided the correct enzyme with the correct substrate/ATP concentration.
(§3) Compounds were added to a thawed enzyme plate in the desired format, in single concentrations. Reactions were initiated by transfer of the substrate/ATP mix from the substrate plate. The enzyme plate was incubated for 90 mins at 25° C. The reaction was stopped by addition of 70 μl of Stop Buffer (100 mM HEPES pH 7.5, 0.015% Brij-35, 10 mM EDTA (Sigma, E7889)).
Plates were read in a manner identical to that of the LC3000, and the ratio between substrate and product peaks provided the activity of the enzyme in that well.

Aurora Kinase B = Aurora Kinase B (Homo sapiens, UniProt Q96GD4); assay: Biochemical enzyme assay for Aurora B activity (Caliper mobility shift); conditions: LC3000 or Desktop Profiler
Method: as §1, §2, §3
Plates were read in a manner identical to that of the LC3000, and the ratio between substrate and product peaks provided the activity of the enzyme in that well. This was best represented by a plate heat map which colors each well by percent inhibition as compared to positive and negative controls (no inhibitors and no ATP respectively).

Sequence of Aurora Kinase B (Q96GD4 whole entry): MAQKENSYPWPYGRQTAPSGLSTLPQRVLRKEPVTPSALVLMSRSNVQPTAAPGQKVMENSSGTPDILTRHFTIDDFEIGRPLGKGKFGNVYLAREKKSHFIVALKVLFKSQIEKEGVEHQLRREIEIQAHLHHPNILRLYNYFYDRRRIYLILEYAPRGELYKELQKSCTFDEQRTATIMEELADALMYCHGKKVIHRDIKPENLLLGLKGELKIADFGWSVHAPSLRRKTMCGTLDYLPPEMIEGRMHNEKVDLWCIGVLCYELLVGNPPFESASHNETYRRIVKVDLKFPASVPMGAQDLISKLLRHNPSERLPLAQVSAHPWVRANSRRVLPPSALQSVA

pIC50 (Aurora Kinase A) | pIC50 (Aurora Kinase B) | Compound
< 6.00 | 6.00 to 6.22 | CN(C)CCNC(=O)c1cc2c(Nc3ccc(NC(=O)c4ccccc4)cc3)ncnc2[nH]c1=O [Compound 86, 4-(4-Benzoylamino-phenylamino)-7-oxo-7,8-dihydro-pyrido[2,3-d]pyrimidine-6-carboxylic acid 2-(dimethylamino-ethyl)-amide]
6.52 to 9.00 | 6.52 to 9.00 | Nc1cc2c(Nc3ccc(NC(=O)c4ccc(F)cc4C(F)(F)F)cc3)ccnc2[nH]c1=O [Compound 90, 4-Fluoro-2-trifluoromethyl-N-(4-(6-amino-7-oxo-7,8-dihydro-1,8-naphthyridin-4-yl-amino)phenyl)benzamide]
6.52 to 9.00 | 6.52 to 9.00 | Cc1cc(=O)[nH]c2nccc(Nc3ccc(NC(=O)c4ccccc4)cc3)c12 [Compound 94, N-[4-(5-Methyl-7-oxo-7,8-dihydro-[1,8]naphthyridin-4-ylamino)-phenyl]-benzamide]
6.52 to 9.00 | 6.52 to 9.00 | Nc1cc2c(Nc3ccc(NC(=O)c4ccc(F)c(F)c4)cc3)ccnc2[nH]c1=O [Compound 89, 3,4-Difluoro-N-(4-(6-amino-7-oxo-7,8-dihydro-1,8-naphthyridin-4-yl-amino)phenyl)benzamide]
6.52 to 9.00 | 6.52 to 9.00 | O=C(Nc1ccc(Nc2ccnc3[nH]c(=O)c(F)cc23)cc1)c1ccc(F)cc1C(F)(F)F [Compound 96, 4-Fluoro-N-[4-(6-fluoro-7-oxo-7,8-dihydro-[1,8]naphthyridin-4-ylamino)-phenyl]-2 trifluoromethyl-benzamide]
6.00 to 6.22 | 6.00 to 6.22 | O=C(Nc1ccc(Nc2ccnc3[nH]c(=O)ccc23)cc1)c1ccccc1C(F)(F)F [Compound 37, 2-Trifluoromethyl-N-(4-(7-oxo-7,8-dihydro-1,8-naphthyridin-4-yl-amino)phenyl)benzamide]
6.52 to 9.00 | 6.52 to 9.00 | Cc1cc(=O)[nH]c2nccc(Nc3ccc(NC(=O)c4ccc(F)cc4C(F)(F)F)cc3)c12 [Compound 95, 4-Fluoro-N-[4-(5-methyl-7-oxo-7,8-dihydro-[1,8]naphthyridin-4-ylamino)-phenyl]-2 trifluoromethyl-benzamide]
6.52 to 9.00 | 6.52 to 9.00 | O=C(Nc1ccc(Nc2ccnc3[nH]c(=O)cc(OCC4CC4)c23)cc1)c1ccccc1 [Compound 93, N-[4-(5-Cyclopropylmethoxy-7-oxo-7,8-dihydro-[1,8]naphthyridin-4-ylamino)-phenyl]benzamide]
6.52 to 9.00 | 6.52 to 9.00 | Nc1ccc(NC(=O)c2ccccc2C(F)(F)F)cc1 [Compound 5, N-(4-Aminophenyl)-2-trifluoromethyl-benzamide]
< 6.00 | < 6.00 | O=C(Nc1ccc(Nc2ccnc3[nH]c(=O)ccc23)cc1)c1ccc(C(F)(F)F)cc1 [Compound 38, 4-Trifluoromethyl-N-(4-(7-oxo-7,8-dihydro-1,8-naphthyridin-4-yl-amino)phenyl)benzamide]
< 6.00 | – | COC(=O)c1cc2c(Nc3ccc(NC(=O)c4ccccc4)cc3)ncnc2[nH]c1=O [Compound 84, 4-(4-Benzoylamino-phenylamino)-7-oxo-7,8-dihydro-pyrido[2,3-d]pyrimidine-6-carboxylic acid methyl ester]
6.52 to 9.00 | – | O=C(Nc1ccc(Nc2ccnc3[nH]c(=O)ccc23)cc1)c1ccc(F)cc1C(F)(F)F [Compound 40, 4-Fluoro-2-trifluoromethyl-N-(4-(7-oxo-7,8-dihydro-1,8-naphthyridin-4-yl-amino)phenyl)benzamide]
6.52 to 9.00 | – | CC(C)(C)C(=O)Nc1nccc(Cl)c1C(=O)c1ccccc1 [Compound 73, N-(3-Benzoyl-4-chloropyridin-2-yl)-2,2-dimethylpropanamide]
6.52 to 9.00 | – | Nc1ccc(NC(=O)c2cc(F)cc(F)c2)cc1 [Compound 11, N-(4-Aminophenyl)-3,5-difluoro-benzamide]
6.52 to 9.00 | – | O=C(Nc1ccc(Nc2ccnc3[nH]c(=O)c(C(=O)O)c(-c4ccccc4)c23)cc1)c1ccc(F)c(F)c1 [Compound 76, 5-[(3,4-Difluoro-benzoylamino)-phenylamino]-2-oxo-4-phenyl1,2-dihydro-1,8-naphthyridine-3-carboxylic acid]
6.52 to 9.00 | – | O=C(Nc1ccc(Nc2ccnc3[nH]c(=O)c([N+](=O)[O-])cc23)cc1)c1ccc(F)c(F)c1 [Compound 87, 3,4-Difluoro-N-(4-(6-nitro-7-oxo-7,8-dihydro-1,8-naphthyridin-4-ylamino)phenyl)benzamide]

pIC50 (Aurora Kinase A) | pIC50 (Aurora Kinase B) | Compound
6.52 to 9.00 | – | Nc1ccc(NC(=O)c2cc(C(F)(F)F)cc(C(F)(F)F)c2)cc1 [Compound 14, N-(4-Aminophenyl)-3,5-bis-trifluoromethyl-benzamide]
6.52 to 9.00 | – | Nc1ccc(NC(=O)c2ccc3ccccc3c2)cc1 [Compound 15, Naphthalene-2-carboxylic acid (4-aminophenyl)-amide]
< 6.00 | – | O=C(Nc1ccc(Nc2ccnc3[nH]c(=O)ccc23)cc1)c1cc(C(F)(F)F)cc(C(F)(F)F)c1 [Compound 49, 3,5-Bis(trifluoromethyl)-N-(4-(7-oxo-7,8-dihydro-1,8-naphthyridin-4-yl-amino)phenyl)benzamide]
6.52 to 9.00 | – | O=C(Nc1ccc(Oc2ccnc3[nH]c(=O)ccc23)cc1)c1ccccc1 [Compound 46, N-(4-(7-oxo-7,8-dihydro-1,8-naphthyridin-4-yloxy)phenyl)benzamide]
6.52 to 9.00 | – | O=c1ccc2c(Cl)ccnc2[nH]1 [Compound 31, 5-Chloro-1,8-naphthyridi-2(1H)-one]
6.52 to 9.00 | – | O=C(Cc1cc2c(Nc3ccc(NC(=O)c4ccc(F)c(F)c4)cc3)ccnc2[nH]c1=O)NCCO [Compound 82]
6.52 to 9.00 | – | Nc1ccc(NC(=O)c2ccc(OC(F)(F)F)cc2)cc1 [Compound 21, N-(4-Aminophenyl)-4-trifluoromethoxy-benzamide]
6.52 to 9.00 | – | Nc1ccc(NC(=O)c2cccc(C(F)(F)F)c2F)cc1 [Compound 7, N-(4-Aminophenyl)-2-fluoro-3-trifluoromethyl-benzamide]
< 6.00 | – | CN(C)CCCOc1ccc2c(Nc3ccc(C(=O)Nc4ccccc4)cc3)ccnc2n1 [Compound 69, N-(4-(7-(4-Dimethylamino-propoxy)-1,8-naphthyridin-4-yl-amino)phenyl)benzamide]
6.52 to 9.00 | – | Nc1ccc(NC(=O)c2ccc(C(F)(F)F)cc2F)cc1 [Compound 18, N-(4-Aminophenyl)-2-fluoro-4-trifluoromethyl-benzamide]
< 6.00 | – | Nc1ncnc(Nc2ccc(NC(=O)c3ccccc3)cc2)c1C=O [Compound 83, N-[4-(6-Amino-5-formyl-pyrimidin-4-ylamino)-phenyl]-benzamide]
6.52 to 9.00 | – | O=C(Nc1ccc(Nc2ccnc3[nH]c(=O)ccc23)cc1)c1ccccc1F [Compound 34, 2-Fluoro-N-(4-(7-oxo-7,8-dihydro-1,8-naphthyridin-4-yl-amino)phenyl)benzamide]
6.52 to 9.00 | – | O=c1ccc2c(Nc3c(Cl)ccc4c3OCO4)ccnc2[nH]1 [Compound 31a, 5-(5-chlorobenzo[d][1,3]dioxo-4-ylamino)-1,8-naphthyridin-2(1H)-one]
6.22 to 6.52 | – | Nc1ccc(NC(=O)c2ccc(F)c(F)c2)cc1 [Compound 10, N-(4-Aminophenyl)-3,4-difluoro-benzamide]
6.52 to 9.00 | – | Nc1ccc(NC(=O)C2CCCCC2)cc1 [Compound 13, Cyclohexanecarboxylic acid (4-aminophenyl)-amide]
